According to patent US5859037A, “Sulfonylurea-glitazone combinations for diabetes” (Warner-Lambert Company, priority 1997, dated 1999):
Read-outs that look alike come from different tables or passages of the source.

Legend:
[1] = test system: lipid parameters (markers of lipid metabolism); assay: Fasting serum lipid profile in 52-week clinical study; format: in vivo, patients; details: for Apo A1, Change From Baseline, Mean / Apo B, Change From Baseline, Mean / Free Fatty Acids, Change From Baseline, Mean / Free Fatty Acids, Change From Baseline, Median / HDL Cholesterol, Change From Baseline, Mean / HDL Cholesterol, Change From Baseline, Median / LDL Cholesterol, Change From Baseline, Mean / LDL Cholesterol, Change From Baseline, Median / LP(a), Change From Baseline, Mean / Total Cholesterol, Change From Baseline, Mean / Total Cholesterol, Change From Baseline, Median / Triglycerides, Change From Baseline, Mean / Triglycerides, Change From Baseline, Median / VLDL Cholesterol, Change From Baseline, Mean / VLDL Cholesterol, Change From Baseline, Median: ITT, Week 52; for LDL adjusted mean increase, difference from glyburide / total cholesterol adjusted mean increase, difference from glyburide: Month 12
Experimental: After an initial screening visit, patients meeting the inclusion criteria entered a 4-week baseline phase (unblinded) in which they received 12 mg micronized glyburide (6 mg BID).
Secondary efficacy parameters included markers of glycemic homeostasis (insulin and C-peptide) and markers of lipid metabolism (total cholesterol, total triglycerides, HDL, VLDL, LDL (measured), free fatty acids, Lp(a), Apo A1, and Apo B).
Efficacy analysis was performed on 2 patient populations, intent-to-treat and completers. […] Patients withdrawing from the study before Week 52 were included in the analysis using the LOCF procedure; the last measurement on treatment was substituted for the missing Week 52 measurement. The intent-to-treat patient sample was the primary sample for assessing efficacy. Completers comprised patients in the intent-to-treat sample who completed Week 52.
Summary statistics for baseline, follow-up (post-randomization), and change from baseline in secondary efficacy parameters were computed by treatment group and visit. For each patient, the baseline measurements for insulin, C-peptide, blood pressure, total cholesterol, triglycerides, LDL, HDL, VLDL, and free fatty acids were defined as the measurement at Week 0. In order to reduce variability, the baseline Apo A, Apo B, and Lp(a) levels were defined as the average of the respective measurements at Weeks -1 and 1. Similarly, the end-of-treatment Apo A, Apo B, and Lp(a) measurements were defined as the average of the respective measurements at Weeks 48 and 52. Averages from Weeks 20 and 24 were not carried forward for these special lipid parameters.
Fasting serum lipid profiles were determined at baseline and periodically through Week 52. Apo A1, Apo B, and Lp(a) were determined only at baseline, Month 6, and Month 12 as part of a special laboratory panel.

[2] = Trough plasma concentrations of troglitazone; format: in vivo, patients; details: Week 12; for concentration at 2016 h: human, plasma, po, alone or + glyburide, read-out: Mean (% RSD) Trough Plasma Concentration of Troglitazone
Experimental: Trough plasma concentrations of troglitazone were determined at Week 12. Blood samples (7 mL) were collected in heparinized glass tubes. Following centrifugation, plasma samples were transferred to plastic tubes and stored at -20° C. until assayed. Plasma samples were assayed at Corning Hazleton, Inc., PO Box 7545, Madison, Wis., 53707, using a validated liquid chromatographic method with electrochemical detection. The minimum quantitation limit for troglitazone was 5 ng/mL. Concentrations below the limit of quantitation were reported as zero. The analysts remained blinded to the treatment randomization code during sample analysis.

[3] = Body weight in clinical study; format: in vivo, patients; details: Month 12; for Body weight, Adjusted Mean Change From Baseline (SE): ITT; for mean decrease in body weight from baseline: monotherapy (troglitazone: range over doses)
From the text: This was a 12-month, double-blind, randomized, parallel-group, active-control, multicenter study design (FIG. 1). […] Patients were instructed to fast overnight prior to visits requiring specimen collection.

[4] = patients studied to date; cited from earlier work
[5] = test system: postprandial glucose tolerance; assay: 2-hour meal tolerance test (postprandial glucose, insulin, C-peptide AUC); format: in vivo, patients; details: Month 12, vs glyburide, p ≤0.05; all combination doses and 600 mg troglitazone monotherapy
Experimental: The effect of treatment on the pattern of postprandial glucose tolerance (standard 2-hour meal tolerance test) was determined in a subset of patients.
A 2-hour meal tolerance test to assess postprandial glucose and insulin excursions in response to a premeasured meal (breakfast) was conducted in a subset of patients at baseline, Week 24, and at the end of treatment. […] Additional parameters included total insulin and C-peptide. Analyses of the meal tolerance parameters were based on observations at the end of treatment; observations from Week 24 were not carried forward.
Summary statistics for glucose, insulin, and C-peptide levels every 30 minutes for 2 hours were provided at baseline, and Months 6 and 12.
The change from baseline in each response variable was compared between treatment groups using analysis of covariance. The analysis included all patients who had baseline and Month 12 test data. The primary model included effects due to treatment and center and baseline as covariate. The 95% confidence interval for the treatment difference based on the primary model was provided for each pairwise comparison of treatment groups.
Meal tolerance testing was performed in a subset of patients at baseline and at Months 6 and 12. Postprandial glucose, insulin, and C-peptide levels were determined at 30, 60, 90, and 120 minutes after a standard meal (Sustacal HC) (Table 13).

[6] = troglitazone 200 mg, or 200 mg/12 mg in combination
[7] = troglitazone 400 mg, or 400 mg/12 mg in combination
[8] = troglitazone 600 mg, or 600 mg/12 mg in combination
[9] = glyburide monotherapy (active control)

## Cc1c(C)c2c(c(C)c1O)CCC(C)(COc1ccc(CC3SC(=O)NC3=O)cc1)O2 (centres unmarked) [Troglitazone]
[1]; 600 mg troglitazone monotherapy, p<0.05
  HDL adjusted mean change, difference from glyburide: 4.9 mg/dL
[1]; [6]
  Apo A1, Change From Baseline, Mean: 1.9 mg/dL
  Apo B, Change From Baseline, Mean: 6.4 mg/dL
  Free Fatty Acids, Change From Baseline, Mean: -0.09 mEq/L
  Free Fatty Acids, Change From Baseline, Median: -0.04 mEq/L
  HDL Cholesterol, Change From Baseline, Mean: 0.86 mg/dL
  HDL Cholesterol, Change From Baseline, Median: 1.00 mg/dL
  LDL Cholesterol, Change From Baseline, Mean: 17.78 mg/dL
  LDL Cholesterol, Change From Baseline, Median: 20.50 mg/dL
  LP(a), Change From Baseline, Mean: 8.8 mg/dL
  Total Cholesterol, Change From Baseline, Mean: 19.96 mg/dL
  Total Cholesterol, Change From Baseline, Median: 21.00 mg/dL
  Triglycerides, Change From Baseline, Mean: -35.77 mg/dL
  Triglycerides, Change From Baseline, Median: 3.50 mg/dL
  VLDL Cholesterol, Change From Baseline, Mean: 3.54 mg/dL
  VLDL Cholesterol, Change From Baseline, Median: 3.50 mg/dL
[1]; [7]
  Apo A1, Change From Baseline, Mean: -1.5 mg/dL
  Apo B, Change From Baseline, Mean: 3.4 mg/dL
  Free Fatty Acids, Change From Baseline, Mean: -0.17 mEq/L
  Free Fatty Acids, Change From Baseline, Median: -0.12 mEq/L
  HDL Cholesterol, Change From Baseline, Mean: 2.99 mg/dL
  HDL Cholesterol, Change From Baseline, Median: 3.00 mg/dL
  LDL Cholesterol, Change From Baseline, Mean: 12.09 mg/dL
  LDL Cholesterol, Change From Baseline, Median: 11.00 mg/dL
  LP(a), Change From Baseline, Mean: 10.0 mg/dL
  Total Cholesterol, Change From Baseline, Mean: 24.78 mg/dL
  Total Cholesterol, Change From Baseline, Median: 20.00 mg/dL
  Triglycerides, Change From Baseline, Mean: -3.86 mg/dL
  Triglycerides, Change From Baseline, Median: -2.00 mg/dL
  VLDL Cholesterol, Change From Baseline, Mean: 8.48 mg/dL
  VLDL Cholesterol, Change From Baseline, Median: 3.00 mg/dL
[1]; [8]
  Apo A1, Change From Baseline, Mean: -1.9 mg/dL
  Apo B, Change From Baseline, Mean: 3.1 mg/dL
  Free Fatty Acids, Change From Baseline, Mean: -0.19 mEq/L
  Free Fatty Acids, Change From Baseline, Median: -0.11 mEq/L
  HDL Cholesterol, Change From Baseline, Mean: 4.53 mg/dL
  HDL Cholesterol, Change From Baseline, Median: 3.00 mg/dL
  LDL Cholesterol, Change From Baseline, Mean: 16.21 mg/dL
  LDL Cholesterol, Change From Baseline, Median: 15.00 mg/dL
  LP(a), Change From Baseline, Mean: 9.1 mg/dL
  Total Cholesterol, Change From Baseline, Mean: 25.88 mg/dL
  Total Cholesterol, Change From Baseline, Median: 20.50 mg/dL
  Triglycerides, Change From Baseline, Mean: -9.59 mg/dL
  Triglycerides, Change From Baseline, Median: -24.00 mg/dL
  VLDL Cholesterol, Change From Baseline, Mean: -0.36 mg/dL
  VLDL Cholesterol, Change From Baseline, Median: -3.00 mg/dL
[1]; 200 mg, p<0.05
  LDL adjusted mean increase, difference from glyburide: 23 mg/dL
  total cholesterol adjusted mean increase, difference from glyburide: 25 mg/dL
[1]; 400 mg, p<0.05
  total cholesterol adjusted mean increase, difference from glyburide: 26 mg/dL
[1]; 600 mg, p<0.05
  LDL adjusted mean increase, difference from glyburide: 19 mg/dL
  total cholesterol adjusted mean increase, difference from glyburide: 28 mg/dL
[1]; mono- or combination therapy
  atherogenic risk / lipid profile (result in words): do not negatively impact atherogenic risk
[2]; dose dependence, mono versus combination
  trough plasma troglitazone concentrations (result in words): Mean trough troglitazone concentrations generally increased with increasing troglitazone doses
[2]; 200 mg QD
  concentration at 2016 h: 145 ng/mL
[2]; 400 mg QD
  concentration at 2016 h: 238 ng/mL
[2]; 600 mg QD
  concentration at 2016 h: 285 ng/mL
[3]; troglitazone 200 mg, or 200/12 mg in combination
  Body weight, Adjusted Mean Change From Baseline (SE): -6.9 lbs
[3]; troglitazone 400 mg, or 400/12 mg in combination
  Body weight, Adjusted Mean Change From Baseline (SE): -3.9 lbs
[3]; troglitazone 600 mg, or 600/12 mg in combination
  Body weight, Adjusted Mean Change From Baseline (SE): -0.8 lbs
[3]
  mean decrease in body weight from baseline: 1 to 7 lbs
[4]
  hypoglycemia (result in words): has not caused hypoglycemia
[5]
  mean glucose AUC(0-2 hr) (result in words): decreased significantly (p ≤0.05) compared with glyburide

## COc1ccc(Cl)cc1C(=O)NCCc1ccc(S(=O)(=O)NC(=O)NC2CCCCC2)cc1 [Glyburide]
[1]; Glynase (active control)
  LDL Cholesterol, Change From Baseline, Mean: 3.49 mg/dL
  LDL Cholesterol, Change From Baseline, Median: 4.00 mg/dL
  Total Cholesterol, Change From Baseline, Mean: 6.17 mg/dL
  Total Cholesterol, Change From Baseline, Median: 6.50 mg/dL
[1]; [9]
  Apo A1, Change From Baseline, Mean: -1.1 mg/dL
  Apo B, Change From Baseline, Mean: 2.9 mg/dL
  Free Fatty Acids, Change From Baseline, Mean: -0.05 mEq/L
  Free Fatty Acids, Change From Baseline, Median: 0.03 mEq/L
  HDL Cholesterol, Change From Baseline, Mean: -0.15 mg/dL
  HDL Cholesterol, Change From Baseline, Median: -1.00 mg/dL
  LP(a), Change From Baseline, Mean: 1.4 mg/dL
  Triglycerides, Change From Baseline, Mean: 14.24 mg/dL
  Triglycerides, Change From Baseline, Median: 8.00 mg/dL
  VLDL Cholesterol, Change From Baseline, Mean: -2.78 mg/dL
  VLDL Cholesterol, Change From Baseline, Median: -1.00 mg/dL
[1]; glyburide monotherapy (active control), listed as glyburide
  Triglycerides, Change From Baseline, Mean: 14 mg/dL
[3]; glyburide (active control)
  Body weight, Adjusted Mean Change From Baseline (SE): -1.3 lbs
[3]
  mean decrease in body weight from baseline: 1 lbs
